Source: US9849129B2, “Sodium channel blockers for skin disorders” (PARION SCIENCES, INC., priority 2015, dated 2017)

Tests used:
mouse corneas = assay: Confocal microscopy of drug penetration in mouse corneas; settings: one hour after application to corneal epithelium, 37° C. (FIG. 2)
Procedure: Corneal cells were labeled using calcein-AM dye by incubating with corneas for 45 minutes at 37° C. in DMEM media. […] Serial x-y images were obtained one hour post-drug addition by confocal microscopy. […] Pharmacological Effects and Mechanism of Action of the Drug in Animals

Bronchial cells = assay: Apical disappearance assay (epithelial absorption); type: in vitro ADME; settings: for Epithelial Uptake Rate: apical surface, initial concentration 10 μM
Procedure: Bronchial cells (dog, human, sheep, or rodent cells) are seeded at a density of 0.25×10^6/cm^2 on a porous Transwell-Col collagen-coated membrane with a growth area of 1.13 cm^2 grown at an air-liquid interface in hormonally defined media that promotes a polarized epithelium. From 12 to 20 days after development of an air-liquid interface (ALI) the cultures are expected to be >90% ciliated, and mucins will accumulate on the cells. To ensure the integrity of primary airway epithelial cell preparations, the transepithelial resistance (Rt) and transepithelial potential differences (PD), which are indicators of the integrity of polarized nature of the culture, are measured. Human cell systems are preferred for studies of rates of absorption from apical surfaces. […] A series of samples (5 μl volume per sample) is collected at various time points, including 0, 5, 20, 40, 90 and 240 minutes. Concentrations are determined by measuring intrinsic fluorescence of each sodium channel blocker using a Fluorocount Microplate Flourometer or HPLC. Quantitative analysis employs a standard curve generated from authentic reference standard materials of known concentration and purity. Data analysis of the rate of disappearance is performed using nonlinear regression, one phase exponential decay (Prism V 3.0).

[1] = tested on: primary human airway epithelial cells; assay: Confocal microscopy assay of amiloride congener uptake, airway epithelial cells; type: cell-based; settings: 10 uM apical, 60 minute incubation (FIG. 1)
Procedure: FIG. 1. […] Benzamil or Compound 2 (10 uM each) were added to the apical compartment of primary human airway epithelial cells. After a 60 minute incubation, the compounds were visualized by confocal microscopy.
Virtually all amiloride-like molecules fluoresce in the ultraviolet range. This property of these molecules may be used to directly measure cellular update using x-z confocal microscopy. […] Serial x-z images are obtained with time and the magnitude of fluorescence accumulating in the cellular compartment is quantitated and plotted as a change in fluorescence versus time.
Primary HBE cells were placed in an apparatus designed to position transwell membrane supports on a confocal microscope stage (Leica, Wetzlar, Germany). The glycocalyx and cilia were labeled with 3 μM wheat germ agglutinin-fluorescein (Molecular Probes, Eugene, Oreg.) for 45 mm at 37° C. to visualize the apical domain of HBE cell cultures. The autofluorescence of the cells was acquired prior to apical compound addition. Images were acquired with a 63× water immersion lens in the x-z plane. Benzamil was added to the mucosal compartment (10 μM; 350 μl), and images were recorded serially from 0 to 5 mm.

[2] = target: T1, airway epithelial sodium currents (epithelial sodium channel, ENaC) (UniProt A0A8I3MKE6+A0A8I3Q679+Q95165); assay: Sodium channel blocking activity: short circuit current (ISC) in airway epithelial monolayers in Ussing chambers; settings: for IC50: read-out: Potency of Sodium Channel Blockade (IC50), lumenal addition, airway epithelial monolayers (human, dog, sheep or rodent cells, not specified)
T1 sequence (A0A8I3MKE6 1-646): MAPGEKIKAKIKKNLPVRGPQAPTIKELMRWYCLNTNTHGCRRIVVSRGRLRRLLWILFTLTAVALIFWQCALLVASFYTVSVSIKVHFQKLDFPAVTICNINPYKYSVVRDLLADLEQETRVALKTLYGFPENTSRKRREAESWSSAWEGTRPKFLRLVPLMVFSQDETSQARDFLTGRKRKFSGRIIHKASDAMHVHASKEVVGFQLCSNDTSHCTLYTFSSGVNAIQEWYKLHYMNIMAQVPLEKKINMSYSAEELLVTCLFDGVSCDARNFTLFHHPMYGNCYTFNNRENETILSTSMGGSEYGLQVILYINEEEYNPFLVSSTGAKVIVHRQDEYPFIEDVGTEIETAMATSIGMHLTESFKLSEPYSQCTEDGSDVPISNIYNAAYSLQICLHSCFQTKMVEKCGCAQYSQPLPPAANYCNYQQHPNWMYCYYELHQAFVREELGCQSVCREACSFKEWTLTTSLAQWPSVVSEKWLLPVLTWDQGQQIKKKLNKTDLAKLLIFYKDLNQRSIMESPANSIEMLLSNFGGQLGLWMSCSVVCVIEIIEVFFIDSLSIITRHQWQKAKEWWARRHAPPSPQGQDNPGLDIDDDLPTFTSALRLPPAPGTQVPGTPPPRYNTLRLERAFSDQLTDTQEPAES
T1 sequence (A0A8I3Q679 1-649): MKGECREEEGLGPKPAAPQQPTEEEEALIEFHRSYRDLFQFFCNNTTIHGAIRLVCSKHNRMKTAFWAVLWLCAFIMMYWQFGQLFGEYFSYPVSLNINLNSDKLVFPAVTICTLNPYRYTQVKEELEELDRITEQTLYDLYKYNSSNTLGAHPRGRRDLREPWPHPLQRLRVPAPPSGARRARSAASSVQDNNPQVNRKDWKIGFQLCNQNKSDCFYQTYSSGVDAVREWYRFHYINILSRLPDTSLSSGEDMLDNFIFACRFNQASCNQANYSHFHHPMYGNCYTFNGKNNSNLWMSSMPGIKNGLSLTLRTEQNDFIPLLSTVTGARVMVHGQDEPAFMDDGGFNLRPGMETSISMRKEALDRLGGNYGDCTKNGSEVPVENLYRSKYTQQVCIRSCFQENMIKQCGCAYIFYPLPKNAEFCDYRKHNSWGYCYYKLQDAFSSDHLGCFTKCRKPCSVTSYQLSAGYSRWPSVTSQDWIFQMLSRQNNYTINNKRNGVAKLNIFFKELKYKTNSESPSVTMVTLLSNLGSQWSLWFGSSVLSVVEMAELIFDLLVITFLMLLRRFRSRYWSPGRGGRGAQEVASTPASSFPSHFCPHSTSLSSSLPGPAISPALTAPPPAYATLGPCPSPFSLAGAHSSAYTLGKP
T1 sequence (Q95165 1-641): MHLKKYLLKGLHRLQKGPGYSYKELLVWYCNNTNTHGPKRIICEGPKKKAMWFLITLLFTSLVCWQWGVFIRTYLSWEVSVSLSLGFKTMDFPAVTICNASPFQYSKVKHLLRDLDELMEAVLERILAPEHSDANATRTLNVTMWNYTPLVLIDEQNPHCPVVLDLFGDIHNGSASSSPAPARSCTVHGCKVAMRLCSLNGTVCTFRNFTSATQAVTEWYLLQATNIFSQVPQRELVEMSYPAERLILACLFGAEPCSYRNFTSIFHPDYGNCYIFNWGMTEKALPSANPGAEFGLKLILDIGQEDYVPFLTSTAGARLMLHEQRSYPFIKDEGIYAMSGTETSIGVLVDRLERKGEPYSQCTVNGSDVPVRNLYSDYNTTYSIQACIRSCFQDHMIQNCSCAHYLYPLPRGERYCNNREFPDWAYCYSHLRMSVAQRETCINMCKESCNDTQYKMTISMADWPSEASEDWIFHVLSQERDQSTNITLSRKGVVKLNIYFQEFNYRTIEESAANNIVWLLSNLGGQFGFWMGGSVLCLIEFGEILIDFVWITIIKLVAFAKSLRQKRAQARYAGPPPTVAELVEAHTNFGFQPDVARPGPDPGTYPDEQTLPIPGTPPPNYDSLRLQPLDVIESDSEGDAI
Procedure: One assay used to assess mechanism of action and/or potency of the compounds of the present invention involves the determination of lumenal drug inhibition of airway epithelial sodium currents measured under short circuit current (ISC) using airway epithelial monolayers mounted in Ussing chambers. Cells obtained from freshly excised human, dog, sheep or rodent airways are seeded onto porous 0.4 micron Snapwell™ Inserts (CoStar), cultured at air-liquid interface (ALI) conditions in hormonally defined media, and assayed for sodium transport activity (ISC) while bathed in Krebs Bicarbonate Ringer (KBR) in Ussing chambers. […] All drugs are prepared in dimethyl sulfoxide as stock solutions at a concentration of 1×10^−2 M and stored at 20° C. […] After the maximal concentration (5×10^−5 M) is administered, the lumenal bath is exchanged three times with fresh, drug-free KBR solution, and the resultant ISC measured after each wash for approximately 5 minutes in duration. Reversibility is defined as the percent return to the baseline value for sodium current after the third wash. All data from the voltage clamps are collected via a computer interface and analyzed off-line.
Dose-effect relationships for all compounds are considered and analyzed by the Prism 3.0 program.

N=C(N)NC(=O)c1nc(Cl)c(N)nc1N [Amiloride, reference compound]
Corneal penetration seen by confocal microscopy (mouse corneas): can fully penetrate the cornea
Epithelial Uptake Rate (Bronchial cells): 2 nM/cm^2/min

NC(=NCc1ccccc1)NC(=O)c1nc(Cl)c(N)nc1N [Benzamil]
Cellular penetration/uptake seen by confocal microscopy [1]: largely concentrated inside cells
Cellular penetration/uptake seen by confocal microscopy ([1]; listed as benzamil): rapidly taken up by the cells
IC50 [2]: 46 nM
Epithelial Uptake Rate (Bronchial cells): 6.6 nM/cm^2/min
Fold Decrease in Apical Absorption (Relative to Amiloride) (Bronchial cells): 0.3

N=C(NCCCCc1ccc(OCC(O)CO)cc1)NC(=O)c1nc(Cl)c(N)nc1N (stereo not drawn) [Compound 1]
IC50 [2]: 7.4 nM
Fold Increase in Potency (Relative to Amiloride) [2]: 105

N=C(N)NCCOc1ccc(CCCCNC(=N)NC(=O)c2nc(Cl)c(N)nc2N)cc1 [Compound 2]
Cellular penetration/uptake seen by confocal microscopy [1]: concentrated on the exterior cell surface
IC50 [2]: 10.2 nM
Fold Increase in Potency (Relative to Amiloride) [2]: 77
Epithelial Uptake Rate (Bronchial cells): 0.2 nM/cm^2/min
Fold Decrease in Apical Absorption (Relative to Amiloride) (Bronchial cells): 10.0

N=C(N)NCCCC[C@@H](N)C(=O)NCCCN(CCCNC(=O)[C@H](N)CCCCNC(=N)N)CCOc1ccc(CCCCNC(=N)NC(=O)c2nc(Cl)c(N)nc2N)cc1 [Compound 3]
IC50 [2]: 3.2 nM
Fold Increase in Potency (Relative to Amiloride) [2]: 244
Corneal penetration seen by confocal microscopy (mouse corneas): remains associated with the apical (epithelial) surface

N=C(NCCCCc1ccc(OCCN(CCCc2ccccc2)C[C@H](O)[C@@H](O)[C@H](O)[C@H](O)CO)cc1)NC(=O)c1nc(Cl)c(N)nc1N [Compound 5]
IC50 [2]: 6.6 nM
Fold Increase in Potency (Relative to Amiloride) [2]: 118
Epithelial Uptake Rate (Bronchial cells): 0.2 nM/cm^2/min
Fold Decrease in Apical Absorption (Relative to Amiloride) (Bronchial cells): 10.0

N=C(NCCCCc1ccc(OCCN(CCCc2cccc3ccccc23)C[C@H](O)[C@@H](O)[C@H](O)[C@H](O)CO)cc1)NC(=O)c1nc(Cl)c(N)nc1N [Compound 6]
IC50 [2]: 5.9 nM
Fold Increase in Potency (Relative to Amiloride) [2]: 186

NC(=Nc1ccccc1)NC(=O)c1nc(Cl)c(N)nc1N [Phenamil, reference compound]
IC50 [2]: 116 nM
Fold Increase in Potency (Relative to Amiloride) [2]: 6.5
Epithelial Uptake Rate (Bronchial cells): 9.0 nM/cm^2/min
Fold Decrease in Apical Absorption (Relative to Amiloride) (Bronchial cells): 0.2
